Measured values taken from publication PMC5431342, “Discovery of an enzyme and substrate selective inhibitor of ADAM10 using an exosite-binding glycosylated substrate” (Scientific Reports, 2016).

How the values were obtained:
panel of metzincins = experiment: Dose response against a panel of metzincins (MMP, meprin, ADAM assays); assay type: biochemical; settings: reordered powder, dilutions starting at 100 µM
Method: Powders for 4 compounds (CID # 3117694, 730037, 3153587, and 236330) were reordered from corresponding vendors and tested in 10-point, 1:3 serial dilutions starting at 100 µM in triplicate against ADAM10 and ADAM17 and a panel of metzincins. We examined the activity and selectivity of lead CID 3117694 using an ADAM10 and 17 HPLC-based assays using glycosylated substrate (Fig. 2A).
All assays followed the same general protocol. 5 µL of 2x enzyme solution (5 nM) in assay buffer (50 mM Tricine, 50 mM NaCl, 10 mM CaCl2, 0.05% Brij-35, pH 7.5) were added to solid bottom black 384 plates (Nunc, cat# 264705). Next, test compounds and pharmacological controls were added to corresponding wells using a 384 pin tool device (V&P Scientific, San Diego). […] Reactions were incubated at RT for 1 h, after which the fluorescence was measured using the Synergy H4 multimode microplate reader (Biotek Instruments) (λexcitation = 324 nm, λemission = 390 nm).
Both assays followed the same general protocol. […] After 30 min incubation at RT, the reactions were started by addition of 5 µL of 2x solutions of substrates (20 µM, mepin α Mca-YVADAPK-K(Dnp); and for meprin β Mca-EDEDED-K(Dnp). Reactions were incubated at RT for 1 h, after which the fluorescence was measured using the Synergy H4 multimode microplate reader (Biotek Instruments) (λexcitation = 324 nm, λemission = 390 nm).

ADAM17 [1] = target: T1, ADAM17 (Homo sapiens, UniProt P78536); experiment: HPLC-based ADAM17 assay using glycosylated substrate; assay type: biochemical
T1 construct: purchased R&D Systems 930-ADB
T1 sequence (P78536 215-824): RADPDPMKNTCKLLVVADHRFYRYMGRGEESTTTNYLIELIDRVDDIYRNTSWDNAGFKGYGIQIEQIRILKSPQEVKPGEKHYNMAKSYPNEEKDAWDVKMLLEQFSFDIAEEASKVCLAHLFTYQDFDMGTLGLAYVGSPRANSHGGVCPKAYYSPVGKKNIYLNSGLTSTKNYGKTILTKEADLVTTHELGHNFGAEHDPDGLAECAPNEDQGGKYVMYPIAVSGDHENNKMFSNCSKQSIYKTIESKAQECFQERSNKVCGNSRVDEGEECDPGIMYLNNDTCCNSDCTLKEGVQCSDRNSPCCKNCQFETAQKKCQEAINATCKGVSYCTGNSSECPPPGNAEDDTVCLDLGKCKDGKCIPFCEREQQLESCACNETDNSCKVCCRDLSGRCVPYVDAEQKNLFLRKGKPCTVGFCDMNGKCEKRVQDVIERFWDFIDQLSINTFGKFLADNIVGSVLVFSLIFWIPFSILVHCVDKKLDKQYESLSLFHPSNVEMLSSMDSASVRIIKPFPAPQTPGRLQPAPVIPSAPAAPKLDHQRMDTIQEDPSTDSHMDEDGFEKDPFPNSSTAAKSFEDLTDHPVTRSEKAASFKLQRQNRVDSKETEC
Method: Both assays followed the same general protocol. 30 µL of 3x enzyme solution (30 nM) in assay buffer (10 mM Hepes, 0.001% Brij-35, pH 7.5) were added to solid bottom black 384 plates. Next, 30 µL of 3x test compounds and pharmacological controls were added to corresponding wells. After 30 min incubation at RT, the reactions were started by addition of 30 µL of 3x solution of glycosylated substrate (30 µM). Reactions were incubated at RT for 2 h and then quenched with 10 µL of 500 µM EDTA. Analytical RP-HPLC was performed on a 1260 Infinity Agilent Technologies liquid chromatograph equipped with an Agilent Poroshell 120 column. Eluents were 0.1% TFA in water (A) and 0.1% TFA in acetonitrile (B). The elution gradient was 0–98% B in 15 min with a flow rate of 1.0 mL/min. Detection was at λ = 214, 360, and 460 nm.

MDA-MB-231 cells = experiment: Wound closure assay, MDA-MB-231; assay type: cell-based; settings: MDA-MB-231, 10 µM
Method: (§1) For live-cell analysis of scratch-induced wound closure, 2.5 × 10^4 MDA-MB-231 and A549 cells per well were seeded in collagen G (40 µg/mL) (Biochrom AG, Germany) coated 96-well plates near confluence and allowed to grow overnight in standard medium (DMEM supplemented with 10% FBS and 1% P/S). At confluence, cells were pretreated 2 h with mitomycin (10 µg/mL) (Medac, Germany) to block cell proliferation and washed with standard media. Afterwards, cells were incubated in the presence of inhibitor at the indicated concentrations or DMSO (0.1% vehicle). Subsequently, a defined scratch (wound width between 642–767 µm) was performed in each well using the certified Essen Bioscience automated 96-wound maker^TM (Essen Biosciences, Hertfordshire, UK) for 96 well-plates. The medium was removed and 100 µL standard medium were added to the wells containing either inhibitor or DMSO. The closure of the wounded area was monitored using the IncuCyte ZOOM system by taking images of each well every 2 h over a period of 24 h. The reduction of wound width was determined over time using the IncuCyte ZOOM microscope software 2014A. Data were expressed as percentage of wound closure after 8 h.

[2] = tested on: shedding of HER2 from the surface of BT474 cells; experiment: HER2 shedding inhibition (AlphaLISA soluble HER2); assay type: cell-based; settings: Homo sapiens, BT-474, 48 h
Method: To determine the effect of CID 3117694 on the release of HER2, an AlphaLISA soluble HER2 assay kit was utilized (Perkin Elmer # AL234 C/F). Briefly, 20,000 BT474 (HER2 positive) breast cancer cells were seeded in 200 µL of complete Hybricare media in 96 well plates. After 4 h, media was aspirated and CID 3117694 (3.125–100 µM) and controls (50 µM marimastat and GI 254023X)[11] were added in serum-free media. Cells were incubated for 48 h at 37 °C with 5% CO2 and under a humidified atmosphere. After incubation, 5 µL of supernatant was transferred into white opaque 384 well plate for HER2 AlphaLISA assay.

ADAM17 [3] = target: T1, ADAM17; experiment: ADAM17 glycosylated substrate uHTS/HTS assay; assay type: biochemical; settings: original uHTS dose response, 10-point 1:3 dilutions starting at 70 µM
Method: Both assays followed the same general protocol. […] After 30 min incubation at RT, the reactions were started by addition of 2.5 µL of 2x solutions of glycosylated substrate (20 µM). Reactions were incubated at RT for 2 h, after which the fluorescence was measured using Perkin Elmer Viewlux multimode microplate imager (λexcitation = 360 nm, λemission = 460 nm). Final concentration of test compounds in assays was 7.0 µM.
The miniaturized 1536-well plate format ADAM10 and ADAM17 assays were used to screen a collection of ≈370,000 compounds (MLSMR library, provided by the NIH) on the automated Kalypsys/GNF platform at the Scripps Research Institute Molecular Screening Center (SRIMSC, Jupiter, FL. More details at http://hts.florida.scripps.edu/). […] Both uHTS campaigns were run separately but in a similar manner. Briefly, the first step was the primary screen of all MLSMR’s test compounds as singlicate against the ADAM10 or ADAM17 target at a final concentration of 7.0 μM. Next, compounds selected as primary hits were cherry-picked and retested in triplicate against the primary screen target and its anti-target (ADAM17 for the ADAM10 screening effort, and vice-versa) at the same final concentration of 7.0 μM. […] All data generated during this effort were uploaded to the SRIMSC’s institutional screening database (Assay Explorer, Symyx). Sample to background (S/B) ratios, as well as Z and Z′ values were calculated on a per-plate basis as described before. Curve fitting and resulting IC50 determinations were performed as previously reported.

A549 cells = experiment: Wound closure assay, A549; assay type: cell-based; settings: A549, 10 µM
Method: as §1

inhibition of ADAM17-mediated hydrolysis of glycosylated substrate (ADAM17 [1]): not appreciably inhibited
IC50 [2]: 30 ± 2.5 µM
IC50 (ADAM17 [3]): > 70 µM
SMILES: COc1cccc(C(=O)NNC(=O)C(=O)Nc2ccc(C)c(Cl)c2)c1 [CID 3117694]
inhibition of 11 tested metzincins (including ADAM10 and ADAM17) (panel of metzincins): only ADAM10 was appreciably inhibited
effect on wound healing (MDA-MB-231 cells): significantly decreased wound healing
effect on wound healing (A549 cells): significantly decreased wound healing
